This test has as its target T1, TNKS1 (Homo sapiens, UniProt O95271).
T1 construct: purchased BPS Bioscience, San Diego, USA 80579 (TNKS1 Histone Ribosylation Assay Kit)
T1 sequence (O95271 1-1327): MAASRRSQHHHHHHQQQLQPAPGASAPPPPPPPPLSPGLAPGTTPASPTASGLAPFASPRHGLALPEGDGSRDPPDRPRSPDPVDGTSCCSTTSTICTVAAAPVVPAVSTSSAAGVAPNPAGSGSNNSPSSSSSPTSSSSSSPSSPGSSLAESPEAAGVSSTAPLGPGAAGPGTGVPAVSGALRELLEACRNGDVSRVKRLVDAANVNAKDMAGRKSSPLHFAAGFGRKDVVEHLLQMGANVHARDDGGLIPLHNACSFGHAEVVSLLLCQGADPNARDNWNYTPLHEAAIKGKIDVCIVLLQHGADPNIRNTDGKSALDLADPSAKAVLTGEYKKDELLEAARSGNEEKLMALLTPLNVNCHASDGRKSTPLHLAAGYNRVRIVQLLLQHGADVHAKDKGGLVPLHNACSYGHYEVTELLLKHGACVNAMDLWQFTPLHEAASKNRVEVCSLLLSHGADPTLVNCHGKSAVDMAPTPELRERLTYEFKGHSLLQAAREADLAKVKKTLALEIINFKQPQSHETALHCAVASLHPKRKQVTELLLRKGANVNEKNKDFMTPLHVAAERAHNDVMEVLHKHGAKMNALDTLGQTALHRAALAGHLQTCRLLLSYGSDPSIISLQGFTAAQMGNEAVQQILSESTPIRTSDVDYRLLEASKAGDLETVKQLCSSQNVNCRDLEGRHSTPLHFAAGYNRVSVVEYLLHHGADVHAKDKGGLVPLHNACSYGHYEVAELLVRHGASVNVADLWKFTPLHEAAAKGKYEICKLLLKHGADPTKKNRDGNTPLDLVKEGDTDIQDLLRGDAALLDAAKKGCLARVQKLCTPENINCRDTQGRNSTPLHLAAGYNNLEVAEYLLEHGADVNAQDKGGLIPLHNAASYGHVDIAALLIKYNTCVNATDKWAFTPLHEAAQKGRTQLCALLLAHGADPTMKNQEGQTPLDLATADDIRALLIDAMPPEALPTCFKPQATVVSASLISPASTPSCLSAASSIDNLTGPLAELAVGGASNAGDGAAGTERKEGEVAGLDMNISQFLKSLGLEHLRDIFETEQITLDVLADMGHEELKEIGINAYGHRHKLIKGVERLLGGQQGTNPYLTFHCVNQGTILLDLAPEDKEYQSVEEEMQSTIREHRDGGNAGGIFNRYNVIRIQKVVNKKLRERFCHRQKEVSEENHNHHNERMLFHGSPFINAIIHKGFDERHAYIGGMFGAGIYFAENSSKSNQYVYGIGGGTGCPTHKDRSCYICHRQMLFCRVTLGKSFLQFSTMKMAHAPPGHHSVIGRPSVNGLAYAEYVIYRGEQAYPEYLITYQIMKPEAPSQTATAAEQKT
As to the kind of experiment: TNKS1 Assay B (auto-parsylation, [3H]-NAD+ SPA). It counts as biochemical. The following applies: 6 nM TNKS1, auto-parsylation, over night at room temperature.

For the molecule `O=C(NCCC1CC1)c1nc[nH]c1C(=O)N[C@H]1CC[C@H](C(=O)Nc2ccc(F)cc2Cl)CC1` [Example 74, N^5-{trans-4-[(2-chloro-4-fluorophenyl)carbamoyl]cyclohexyl}-N^4-(2-cyclopropylethyl)-1H-imidazole-4,5-dicarboxamide], it took 84 nM to reach half-maximal inhibition (IC50). As for `CC(C)(O)CNC(=O)c1nc[nH]c1C(=O)N[C@H]1CC[C@H](C(=O)Nc2ccc(F)cc2Cl)CC1` [Example 75, N^5-{trans-4-[(2-chloro-4-fluorophenyl)carbamoyl]cyclohexyl}-N^4-(2-hydroxy-2-methylpropyl)-1H-imidazole-4,5-dicarboxamide], the figure is 84 nM; as for `CC(C)OCCNC(=O)c1nc[nH]c1C(=O)N[C@H]1CC[C@H](C(=O)Nc2ccc(F)cc2Cl)CC1` [Example 76, N^5-{trans-4-[(2-chloro-4-fluorophenyl)carbamoyl]cyclohexyl}-N^4-(2-isopropoxyethyl)-1H-imidazole-4,5-dicarboxamide], 94 nM. `CC(C)NCCNC(=O)c1nc[nH]c1C(=O)N[C@H]1CC[C@H](C(=O)Nc2ccc(F)cc2Cl)CC1` [Example 77, N^5-{trans-4-[(2-chloro-4-fluorophenyl)carbamoyl]cyclohexyl}-N^4-[2-(isopropylamino)ethyl]-1H-imidazole-4,5-dicarboxamide] gave an IC50 of 37 nM.

`O=C(NCC1CCCO1)c1nc[nH]c1C(=O)N[C@H]1CC[C@H](C(=O)Nc2ccc(F)cc2Cl)CC1` (stereo partly drawn) [Example 78, N^5-{trans-4-[(2-chloro-4-fluorophenyl)carbamoyl]cyclohexyl}-N^4-(tetrahydrofuran-2-ylmethyl)-1H-imidazole-4,5-dicarboxamide] displayed an IC50 of 75 nM. Compared with the last molecule, the IC50 is about 2-fold higher. As for `O=C(NC[C@@H]1CCCO1)c1nc[nH]c1C(=O)N[C@H]1CC[C@H](C(=O)Nc2ccc(F)cc2Cl)CC1` [Example 79, N^5-{trans-4-[(2-chloro-4-fluorophenyl)carbamoyl]cyclohexyl}-N^4-[(2S)-tetrahydrofuran-2-ylmethyl]-1H-imidazole-4,5-dicarboxamide], the figure is 170 nM; as for `O=C(NC[C@H]1CCCO1)c1nc[nH]c1C(=O)N[C@H]1CC[C@H](C(=O)Nc2ccc(F)cc2Cl)CC1` [Example 80, N^5-{trans-4-[(2-chloro-4-fluorophenyl)carbamoyl]cyclohexyl}-N^4-[(2R)-tetrahydrofuran-2-ylmethyl]-1H-imidazole-4,5-dicarboxamide], 62 nM; as for `COC(C)CNC(=O)c1nc[nH]c1C(=O)N[C@H]1CC[C@H](C(=O)Nc2ccc(F)cc2Cl)CC1` (stereo partly drawn) [Example 81, N^5-{trans-4-[(2-chloro-4-fluorophenyl)carbamoyl]cyclohexyl}-N^4-(2-methoxypropyl)-1H-imidazole-4,5-dicarboxamide], 100 nM.

Regarding `COCC(C)NC(=O)c1nc[nH]c1C(=O)N[C@H]1CC[C@H](C(=O)Nc2ccc(F)cc2Cl)CC1` (stereo partly drawn) [Example 82, N^5-{trans-4-[(2-chloro-4-fluorophenyl)carbamoyl]cyclohexyl}-N^4-(1-methoxypropan-2-yl)-1H-imidazole-4,5-dicarboxamide], the IC50 stood at 300 nM. Compared with the last molecule, the IC50 is about 3-fold higher. `COC[C@H](C)NC(=O)c1nc[nH]c1C(=O)N[C@H]1CC[C@H](C(=O)Nc2ccc(F)cc2Cl)CC1` [Example 83, N^5-{trans-4-[(2-chloro-4-fluorophenyl)carbamoyl]cyclohexyl}-N^4-[(2S)-1-methoxypropan-2-yl]-1H-imidazole-4,5-dicarboxamide] displayed an IC50 of 610 nM.

`COC[C@@H](C)NC(=O)c1nc[nH]c1C(=O)N[C@H]1CC[C@H](C(=O)Nc2ccc(F)cc2Cl)CC1` [Example 84, N^5-{trans-4-[(2-chloro-4-fluorophenyl)carbamoyl]cyclohexyl}-N^4-[(2R)-1-methoxypropan-2-yl]-1H-imidazole-4,5-dicarboxamide] gave an IC50 of 370 nM. In turn, `COC(C)(C)CNC(=O)c1nc[nH]c1C(=O)N[C@H]1CC[C@H](C(=O)Nc2cc(F)c(F)cc2Cl)CC1` [Example 85, N^5-{trans-4-[(2-chloro-4,5-difluorophenyl)carbamoyl]cyclohexyl}-N^4-(2-methoxy-2-methylpropyl)-1H-imidazole-4,5-dicarboxamide] came in with an IC50 of 49 nM. `O=C(NCC1CCCO1)c1nc[nH]c1C(=O)N[C@H]1CC[C@H](C(=O)Nc2cc(F)c(F)cc2Cl)CC1` (stereo partly drawn) [Example 86, N^5-{trans-4-[(2-chloro-4,5-difluorophenyl)carbamoyl]cyclohexyl}-N^4-(tetrahydrofuran-2-ylmethyl)-1H-imidazole-4,5-dicarboxamide] returned an IC50 of 30 nM. In turn, `COCC(C)NC(=O)c1nc[nH]c1C(=O)N[C@H]1CC[C@H](C(=O)Nc2cc(F)c(F)cc2Cl)CC1` (stereo partly drawn) [Example 87, N^5-{trans-4-[(2-chloro-4,5-difluorophenyl)carbamoyl]cyclohexyl}-N^4-(1-methoxypropan-2-yl)-1H-imidazole-4,5-dicarboxamide] came in with an IC50 of 27 nM. With `CNC(=O)c1nc[nH]c1C(=O)N[C@H]1CC[C@H](C(=O)Nc2cc(N3CCOCC3)ccc2Cl)CC1` [Example 88, N^5-(trans-4-{[2-chloro-5-(morpholin-4-yl)phenyl]carbamoyl}cyclohexyl)-N^4-methyl-1H-imidazole-4,5-dicarboxamide], the IC50 came to 3600 nM. This IC50 is about 130-fold higher than that of the molecule before. As for `O=C(NCC1CCCO1)c1nc[nH]c1C(=O)N[C@H]1CC[C@H](C(=O)Nc2cc(N3CCOCC3)ccc2Cl)CC1` (stereo partly drawn) [Example 89, N^5-(trans-4-{[2-chloro-5-(morpholin-4-yl)phenyl]carbamoyl}cyclohexyl)-N^4-(tetrahydrofuran-2-ylmethyl)-1H-imidazole-4,5-dicarboxamide], the figure is 1200 nM; as for `COC(C)(C)CNC(=O)c1nc[nH]c1C(=O)N[C@H]1CC[C@H](C(=O)Nc2cc(N3CCOCC3)ccc2Cl)CC1` [Example 90, N^5-(trans-4-{[2-chloro-5-(morpholin-4-yl)phenyl]carbamoyl}cyclohexyl)-N^4-(2-methoxy-2-methylpropyl)-1H-imidazole-4,5-dicarboxamide], 3100 nM. As for `CC(C)(O)CNC(=O)c1nc[nH]c1C(=O)N[C@H]1CC[C@@]2(CCN(c3cccc(Cl)c3)C2=O)CC1` [Example 284, N^5-[(trans)-2-(3-chlorophenyl)-1-oxo-2-azaspiro[4.5]dec-8-yl]-N^4-(2-hydroxy-2-methylpropyl)-1H-imidazole-4,5-dicarboxamide], the figure is 650 nM. `COCC(C)NC(=O)c1nc[nH]c1C(=O)N[C@H]1CC[C@@]2(CCN(c3cccc(Cl)c3)C2=O)CC1` (stereo partly drawn) [Example 285, N^5-[(trans)-2-(3-chlorophenyl)-1-oxo-2-azaspiro[4.5]dec-8-yl]-N^4-(1-methoxypropan-2-yl)-1H-imidazole-4,5-dicarboxamide]: the IC50 was 630 nM. As for `O=C(N[C@H]1CC[C@@]2(CCN(c3cccc(Cl)c3)C2=O)CC1)c1[nH]cnc1C(=O)N1CCOCC1` [Example 286, N-[(trans)-2-(3-chlorophenyl)-1-oxo-2-azaspiro[4.5]dec-8-yl]-4-(morpholin-4-ylcarbonyl)-1H-imidazole-5-carboxamide], the figure is 8600 nM. As for `CNC(=O)c1nc[nH]c1C(=O)N[C@H]1CC[C@@]2(CCN(c3cc(C)c(F)cc3Cl)C2=O)CC1` [Example 288, N^5-[(trans)-2-(2-chloro-4-fluoro-5-methylphenyl)-1-oxo-2-azaspiro[4.5]dec-8-yl]-N^4-methyl-1H-imidazole-4,5-dicarboxamide], the figure is 6.7 nM; as for `CCNC(=O)c1nc[nH]c1C(=O)N[C@H]1CC[C@@]2(CCN(c3cc(C)c(F)cc3Cl)C2=O)CC1` [Example 289, N^5-[(trans)-2-(2-chloro-4-fluoro-5-methylphenyl)-1-oxo-2-azaspiro[4.5]dec-8-yl]-N^4-ethyl-1H-imidazole-4,5-dicarboxamide], 8.7 nM.

In the case of `Cc1cc(N2CC[C@]3(CC[C@@H](NC(=O)c4[nH]cnc4C(=O)NCCN4CCC(C)CC4)CC3)C2=O)c(Cl)cc1F` [Example 290, N^5-[(trans)-2-(2-chloro-4-fluoro-5-methylphenyl)-1-oxo-2-azaspiro[4.5]dec-8-yl]-N^4-[2-(4-methylpiperidin-1-yl)ethyl]-1H-imidazole-4,5-dicarboxamide], the IC50 stood at 6.2 nM.
